Results from patent US8729082B2, “Substituted imidazoquinoxalines” (Bayer Intellectual Property GmbH, priority 2009, dated 2014).

The compounds below were run against T1, human kinase Mps-1 (Homo sapiens, UniProt P33981) (assay: Mps-1 kinase assay (HTRF)). Settings: lowATP; mean; read-out: Mps1 lowATP mean IC50.
T1 construct: N-terminally GST-tagged human full length recombinant Mps-1 kinase; purchased Invitrogen, Karslruhe, Germany PV4071
T1 sequence (P33981 1-857): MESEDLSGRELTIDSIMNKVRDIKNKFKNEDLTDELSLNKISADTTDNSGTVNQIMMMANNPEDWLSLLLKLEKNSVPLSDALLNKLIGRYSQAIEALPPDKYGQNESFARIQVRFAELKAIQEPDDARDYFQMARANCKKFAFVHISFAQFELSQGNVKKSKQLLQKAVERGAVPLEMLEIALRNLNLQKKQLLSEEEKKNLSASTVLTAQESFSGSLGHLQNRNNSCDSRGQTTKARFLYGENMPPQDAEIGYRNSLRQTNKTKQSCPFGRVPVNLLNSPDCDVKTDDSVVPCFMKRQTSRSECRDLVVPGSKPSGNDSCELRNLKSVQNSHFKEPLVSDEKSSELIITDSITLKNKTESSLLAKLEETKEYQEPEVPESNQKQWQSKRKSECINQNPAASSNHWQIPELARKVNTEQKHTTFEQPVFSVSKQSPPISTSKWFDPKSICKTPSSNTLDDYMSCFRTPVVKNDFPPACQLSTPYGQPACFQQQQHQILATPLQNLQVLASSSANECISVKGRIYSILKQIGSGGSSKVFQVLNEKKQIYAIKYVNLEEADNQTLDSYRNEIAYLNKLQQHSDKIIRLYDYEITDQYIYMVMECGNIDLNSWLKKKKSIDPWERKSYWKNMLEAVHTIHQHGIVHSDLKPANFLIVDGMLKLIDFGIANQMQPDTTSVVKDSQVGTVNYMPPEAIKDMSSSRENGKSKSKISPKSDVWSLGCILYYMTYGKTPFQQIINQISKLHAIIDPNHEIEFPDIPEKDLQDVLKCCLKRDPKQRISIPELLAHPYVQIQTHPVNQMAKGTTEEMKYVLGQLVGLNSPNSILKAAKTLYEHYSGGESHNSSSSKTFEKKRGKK
Assay type: biochemical
How it was run: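 HTRF readout: EDTA-stopped reactions incubated 1 h with europium anti-phospho(Ser/Thr) antibody and streptavidin-XLent, emission ratio 665/620 nm after 350 nm excitation. Kinase step: compound pre-bound 15 min to ~1 nM GST-Mps-1, then 60 min at 22 °C with ATP and biotin-peptide substrate; inhibition scaled between no-inhibitor (0%) and no-enzyme (100%) controls.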
In the case of `O=C(NC1CC1)c1ccc(-c2cnc3c(NCc4ccc(F)cc4)nc4cc(F)c(F)cc4n23)cc1` [Example 2-95, N-cyclopropyl-4-{7,8-difluoro-4-[(4-fluorobenzyl)amino]imidazo[1,2-a]quinoxalin-1-yl}benzamide], the IC50 is reported as 75.8 nM. Work on `O=C(NC1CC1)c1ccc(-c2cnc3c(NCCCCO)nc4cc(F)c(F)cc4n23)cc1` [Example 2-96, N-cyclopropyl-4-{7,8-difluoro-4-[(4-hydroxybutyl)amino]imidazo[1,2-a]quinoxalin-1-yl}benzamide] yielded an IC50 of 59.5 nM. For `O=C(NC1CC1)c1ccc(-c2cnc3c(NCC(F)(F)F)nc4cc(F)c(F)cc4n23)cc1` [Example 2-97, N-cyclopropyl-4-{7,8-difluoro-4-[(2,2,2-trifluoroethyl)amino]imidazo[1,2-a]quinoxalin-1-yl}benzamide], the IC50 was 93.7 nM. Compound `O=C(NC1CC1)c1ccc(-c2cnc3c(NCc4cccs4)nc4cc(F)c(F)cc4n23)cc1` [Example 2-98, N-cyclopropyl-4-{7,8-difluoro-4-[(thiophen-2-ylmethyl)amino]imidazo[1,2-a]quinoxalin-1-yl}benzamide] has an IC50 of 62.2 nM. `CCNc1nc2cc(F)c(F)cc2n2c(-c3ccc(C(=O)NC4CC4)cc3)cnc12` [Example 2-99, N-cyclopropyl-4-[4-(ethylamino)-7,8-difluoroimidazo[1,2-a]quinoxalin-1-yl]benzamide] showed an IC50 of 59.8 nM. `O=C(NC1CC1)c1ccc(-c2cnc3c(NCCCO)nc4cc(F)c(F)cc4n23)cc1` [Example 2-100, N-cyclopropyl-4-{7,8-difluoro-4-[(3-hydroxypropyl)amino]imidazo[1,2-a]quinoxalin-1-yl}benzamide] showed an IC50 of 75.3 nM. `CCCCNc1nc2cc(F)c(F)cc2n2c(-c3ccc(C(=O)NC4CC4)cc3)cnc12` [Example 2-101, 4-[4-(butylamino)-7,8-difluoroimidazo[1,2-a]quinoxalin-1-yl]-N-cyclopropylbenzamide] gave an IC50 of 28.3 nM. `CC(=O)NCCNc1nc2cc(F)c(F)cc2n2c(-c3ccc(C(=O)NC4CC4)cc3)cnc12` [Example 2-102, 4-(4-{[2-(acetylamino)ethyl]amino}-7,8-difluoroimidazo[1,2-a]quinoxalin-1-yl)-N-cyclopropylbenzamide] was tested, and the IC50 was 584 nM. With `O=C(NC1CC1)c1ccc(-c2cnc3c(NCCCn4ccnc4)nc4cc(F)c(F)cc4n23)cc1` [Example 2-103, N-cyclopropyl-4-(7,8-difluoro-4-{[3-(1H-imidazol-1-yl)propyl]amino}imidazo[1,2-a]quinoxalin-1-yl)benzamide] the IC50 was 229 nM. `O=C(NC1CC1)c1ccc(-c2cnc3c(NCC4CC4)nc4cc(F)c(F)cc4n23)cc1` [Example 2-104, N-cyclopropyl-4-{4-[(cyclopropylmethyl)amino]-7,8-difluoroimidazo[1,2-a]quinoxalin-1-yl}benzamide] gave an IC50 of 34.1 nM. `O=C(NC1CC1)c1ccc(-c2cnc3c(NCc4ccco4)nc4cc(F)c(F)cc4n23)cc1` [Example 2-105, N-cyclopropyl-4-{7,8-difluoro-4-[(furan-2-ylmethyl)amino]imidazo[1,2-a]quinoxalin-1-yl}benzamide] was tested, and the IC50 was 52.8 nM. Work on `CC(C)CNc1nc2cc(F)c(F)cc2n2c(-c3ccc(C(=O)NC4CC4)cc3)cnc12` [Example 2-106, N-cyclopropyl-4-{7,8-difluoro-4-[(2-methylpropyl)amino]imidazo[1,2-a]quinoxalin-1-yl}benzamide] yielded an IC50 of 24.5 nM. Work on `NC(=O)CCNc1nc2cc(F)c(F)cc2n2c(-c3ccc(C(=O)NC4CC4)cc3)cnc12` [Example 2-107, 4-{4-[(3-amino-3-oxopropyl)amino]-7,8-difluoroimidazo[1,2-a]quinoxalin-1-yl}-N-cyclopropylbenzamide] yielded an IC50 of 233 nM. For `COCCCNc1nc2cc(F)c(F)cc2n2c(-c3ccc(C(=O)NC4CC4)cc3)cnc12` [Example 2-108, N-cyclopropyl-4-{7,8-difluoro-4-[(3-methoxypropyl)amino]imidazo[1,2-a]quinoxalin-1-yl}benzamide], the IC50 was 114 nM. Work on `Cn1ccc(CNc2nc3cc(F)c(F)cc3n3c(-c4ccc(C(=O)NC5CC5)cc4)cnc23)n1` [Example 2-109, N-cyclopropyl-4-(7,8-difluoro-4-{[(1-methyl-1H-pyrazol-3-yl)methyl]amino}imidazo[1,2-a]quinoxalin-1-yl)benzamide] yielded an IC50 of 256 nM. `Cn1nccc1CNc1nc2cc(F)c(F)cc2n2c(-c3ccc(C(=O)NC4CC4)cc3)cnc12` [Example 2-110, N-cyclopropyl-4-(7,8-difluoro-4-{[(1-methyl-1H-pyrazol-5-yl)methyl]amino}imidazo[1,2-a]quinoxalin-1-yl)benzamide] was tested, and the IC50 was 28.5 nM. Compound `Cn1cc(CNc2nc3cc(F)c(F)cc3n3c(-c4ccc(C(=O)NC5CC5)cc4)cnc23)cn1` [Example 2-111, N-cyclopropyl-4-(7,8-difluoro-4-{[(1-methyl-1H-pyrazol-4-yl)methyl]amino}imidazo[1,2-a]quinoxalin-1-yl)benzamide] has an IC50 of 79.6 nM. `NS(=O)(=O)CCNc1nc2cc(F)c(F)cc2n2c(-c3ccc(C(=O)NC4CC4)cc3)cnc12` [Example 2-112, N-cyclopropyl-4-{7,8-difluoro-4-[(2-sulfamoylethyl)amino]imidazo[1,2-a]quinoxalin-1-yl}benzamide] gave an IC50 of 53 nM. `O=C(NC1CC1)c1ccc(-c2cnc3c(NCC(O)CO)nc4cc(F)c(F)cc4n23)cc1` (stereo not drawn) [Example 2-113, N-cyclopropyl-4-{4-[(2,3-dihydroxypropyl)amino]-7,8-difluoroimidazo[1,2-a]quinoxalin-1-yl}benzamide] gave an IC50 of 197 nM. `CCCNc1nc2cc(F)c(F)cc2n2c(-c3ccc(NC(=O)NC)cc3)cnc12` [Example 2-114, 1-{4-[7,8-difluoro-4-(propylamino)imidazo[1,2-a]quinoxalin-1-yl]phenyl}-3-methylurea] showed an IC50 of 16000 nM. With `CNC(=O)Nc1ccc(-c2cnc3c(NCCCN4CCCC4=O)nc4cc(F)c(F)cc4n23)cc1` [Example 2-115, 1-[4-(7,8-difluoro-4-{[3-(2-oxopyrrolidin-1-yl)propyl]amino}imidazo[1,2-a]quinoxalin-1-yl)phenyl]-3-methylurea] the IC50 was 16100 nM. For `CNC(=O)Nc1ccc(-c2cnc3c(NCCCO)nc4cc(F)c(F)cc4n23)cc1` [Example 2-116, 1-(4-{7,8-difluoro-4-[(3-hydroxypropyl)amino]imidazo[1,2-a]quinoxalin-1-yl}phenyl)-3-methylurea], the IC50 was 5340 nM. `CCCCNc1nc2cc(F)c(F)cc2n2c(-c3ccc(NC(=O)NC)cc3)cnc12` [Example 2-117, 1-{4-[4-(butylamino)-7,8-difluoroimidazo[1,2-a]quinoxalin-1-yl]phenyl}-3-methylurea] showed an IC50 of 19400 nM. In the case of `CNC(=O)Nc1ccc(-c2cnc3c(NCCNC(C)=O)nc4cc(F)c(F)cc4n23)cc1` [Example 2-118, N-{2-[(7,8-difluoro-1-{4-[(methylcarbamoyl)amino]phenyl}imidazo[1,2-a]quinoxalin-4-yl)amino]ethyl}acetamide], the IC50 is reported as 12700 nM. `CNC(=O)Nc1ccc(-c2cnc3c(NCCCn4ccnc4)nc4cc(F)c(F)cc4n23)cc1` [Example 2-119, 1-[4-(7,8-difluoro-4-{[3-(1H-imidazol-1-yl)propyl]amino}imidazo[1,2-a]quinoxalin-1-yl)phenyl]-3-methylurea] was tested, and the IC50 was 7020 nM. With `CNC(=O)Nc1ccc(-c2cnc3c(NCC4CC4)nc4cc(F)c(F)cc4n23)cc1` [Example 2-120, 1-(4-{4-[(cyclopropylmethyl)amino]-7,8-difluoroimidazo[1,2-a]quinoxalin-1-yl}phenyl)-3-methylurea] the IC50 was 5860 nM. In the case of `CNC(=O)Nc1ccc(-c2cnc3c(NCc4ccccn4)nc4cc(F)c(F)cc4n23)cc1` [Example 2-121, 1-(4-{7,8-difluoro-4-[(pyridin-2-ylmethyl)amino]imidazo[1,2-a]quinoxalin-1-yl}phenyl)-3-methylurea], the IC50 is reported as 6700 nM. For `CNC(=O)Nc1ccc(-c2cnc3c(NCc4cccnc4)nc4cc(F)c(F)cc4n23)cc1` [Example 2-122, 1-(4-{7,8-difluoro-4-[(pyridin-3-ylmethyl)amino]imidazo[1,2-a]quinoxalin-1-yl}phenyl)-3-methylurea], the IC50 was 4080 nM. With `CNC(=O)Nc1ccc(-c2cnc3c(NCc4ccncc4)nc4cc(F)c(F)cc4n23)cc1` [Example 2-123, 1-(4-{7,8-difluoro-4-[(pyridin-4-ylmethyl)amino]imidazo[1,2-a]quinoxalin-1-yl}phenyl)-3-methylurea] the IC50 was 3550 nM. In the case of `CCCNc1nc2cc(F)c(F)cc2n2c(-c3ccc(C(=O)NC4CC4)c(Cl)c3)cnc12` [Example 2-124, 2-chloro-N-cyclopropyl-4-[7,8-difluoro-4-(propylamino)imidazo[1,2-a]quinoxalin-1-yl]benzamide], the IC50 is reported as 319 nM.
